These results are taken from ChEMBL document CHEMBL3132769, “Fragment growing to retain or alter the selectivity of anchored kinase hinge-binding fragments” (Medchemcomm, 2014).

The target of experiment [1] is Mitogen-activated protein kinase 1 (Homo sapiens) (UniProt P28482). Nature of the experiment: Inhibition of human full length ERK2 expressed in Escherichia coli cell assessed as substrate phosphorylation using fluorescence-labelled peptides as substrate at 8 uM after 90 mins by microfluidic peptide phosphorylation assay.
For experiment [2], the target named is T1, Cytoplasmic tyrosine-protein kinase BMX (Homo sapiens) (UniProt P51813).
T1 sequence (whole entry): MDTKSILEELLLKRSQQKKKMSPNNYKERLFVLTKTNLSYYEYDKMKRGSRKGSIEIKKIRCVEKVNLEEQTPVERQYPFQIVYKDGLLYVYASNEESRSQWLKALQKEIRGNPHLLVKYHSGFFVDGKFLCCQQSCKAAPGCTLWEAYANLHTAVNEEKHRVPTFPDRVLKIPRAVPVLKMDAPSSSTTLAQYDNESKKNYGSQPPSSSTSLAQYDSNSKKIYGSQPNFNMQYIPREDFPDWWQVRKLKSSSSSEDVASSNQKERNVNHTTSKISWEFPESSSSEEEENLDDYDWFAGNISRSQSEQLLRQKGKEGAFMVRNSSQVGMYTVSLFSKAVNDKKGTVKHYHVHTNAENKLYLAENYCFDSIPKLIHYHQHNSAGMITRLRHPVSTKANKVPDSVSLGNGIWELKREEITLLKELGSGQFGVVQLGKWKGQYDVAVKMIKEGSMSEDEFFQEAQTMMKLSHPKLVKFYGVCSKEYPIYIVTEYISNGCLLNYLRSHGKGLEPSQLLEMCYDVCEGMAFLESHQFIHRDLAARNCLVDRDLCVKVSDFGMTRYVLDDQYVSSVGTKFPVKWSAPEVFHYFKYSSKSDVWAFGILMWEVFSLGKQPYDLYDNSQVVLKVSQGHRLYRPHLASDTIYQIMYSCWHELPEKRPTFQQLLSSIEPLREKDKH
Kind of experiment: Inhibition of human full length BMX expressed in baculovirus assessed as substrate phosphorylation using fluorescence-labelled peptides as substrate at 8 uM after 90 mins by microfluidic peptide phosphorylation assay.

Experiment [3] deals with T1, Cytoplasmic tyrosine-protein kinase BMX (Homo sapiens). Kind of experiment: Inhibition of human full length BMX expressed in baculovirus assessed as substrate phosphorylation using fluorescence-labelled peptides as substrate at 0.1 uM after 90 mins by microfluidic peptide phosphorylation assay.
In experiment [4] the target is Fibroblast growth factor receptor 4 (Homo sapiens) (UniProt P22455). Kind of experiment: Inhibition of human FGFR4 catalytic domain expressed in baculovirus assessed as substrate phosphorylation using fluorescence-labelled peptides as substrate at 0.06 uM after 90 mins by microfluidic peptide phosphorylation assay.
For experiment [5], the target named is MAP kinase-activated protein kinase 2 (Homo sapiens) (UniProt P49137). Nature of the experiment: Inhibition of human full length MAPKAPK2 expressed in baculovirus assessed as substrate phosphorylation using fluorescence-labelled peptides as substrate at 0.06 uM after 90 mins by microfluidic peptide phosphorylation assay.
The target of experiment [6] is MAP/microtubule affinity-regulating kinase 3 (Homo sapiens) (UniProt P27448). Kind of experiment: Inhibition of human full length c-TAK1 expressed in Escherichia coli cell assessed as substrate phosphorylation using fluorescence-labelled peptides as substrate at 0.2 uM after 90 mins by microfluidic peptide phosphorylation assay.
Experiment [7] addresses Casein kinase I isoform alpha (Homo sapiens) (UniProt P48729). Nature of the experiment: Inhibition of human full length CSNK1A1 expressed in baculovirus assessed as substrate phosphorylation using fluorescence-labelled peptides as substrate at 0.2 uM after 90 mins by microfluidic peptide phosphorylation assay.
The target of experiment [8] is T2, Mitogen-activated protein kinase 13 (Homo sapiens) (UniProt O15264).
T2 sequence (whole entry): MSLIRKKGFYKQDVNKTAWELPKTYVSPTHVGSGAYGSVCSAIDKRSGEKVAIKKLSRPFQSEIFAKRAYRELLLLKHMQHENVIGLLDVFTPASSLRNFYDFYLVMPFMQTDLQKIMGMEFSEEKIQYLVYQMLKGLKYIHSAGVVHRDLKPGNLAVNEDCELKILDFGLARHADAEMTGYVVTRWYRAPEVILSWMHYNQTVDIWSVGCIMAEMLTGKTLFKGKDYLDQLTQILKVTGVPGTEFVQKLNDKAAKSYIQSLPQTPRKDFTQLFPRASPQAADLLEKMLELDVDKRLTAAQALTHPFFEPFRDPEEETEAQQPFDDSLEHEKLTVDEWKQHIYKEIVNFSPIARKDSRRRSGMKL
Kind of experiment: Inhibition of human full length p38 delta expressed in Escherichia coli cell assessed as substrate phosphorylation using fluorescence-labelled peptides as substrate at 9 uM after 90 mins by microfluidic peptide phosphorylation assay.

The target of experiment [9] is T3, Aurora kinase A (Homo sapiens) (UniProt O14965).
T3 sequence (whole entry): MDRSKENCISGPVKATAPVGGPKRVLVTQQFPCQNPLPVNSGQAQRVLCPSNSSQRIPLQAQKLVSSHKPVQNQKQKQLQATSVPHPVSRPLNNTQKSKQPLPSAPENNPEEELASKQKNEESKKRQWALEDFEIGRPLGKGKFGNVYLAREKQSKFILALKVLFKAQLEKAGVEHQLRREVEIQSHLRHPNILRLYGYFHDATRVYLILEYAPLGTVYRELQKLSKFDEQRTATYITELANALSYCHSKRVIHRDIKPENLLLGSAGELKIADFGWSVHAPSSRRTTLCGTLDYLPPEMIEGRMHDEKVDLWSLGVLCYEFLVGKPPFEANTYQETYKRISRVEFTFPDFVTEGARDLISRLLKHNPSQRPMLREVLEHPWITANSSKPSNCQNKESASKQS
Nature of the experiment: Inhibition of human full length AurA expressed in baculovirus assessed as substrate phosphorylation using fluorescence-labelled peptides as substrate at 70 uM after 90 mins by microfluidic peptide phosphorylation assay.

Experiment [10] deals with Ribosomal protein S6 kinase alpha-4 (Homo sapiens) (UniProt O75676). Nature of the experiment: Inhibition of human full length MSK2 expressed in baculovirus assessed as substrate phosphorylation using fluorescence-labelled peptides as substrate at 70 uM after 90 mins by microfluidic peptide phosphorylation assay.
Experiment [11] addresses Fibroblast growth factor receptor 4 (Homo sapiens) (UniProt P22455). Kind of experiment: Inhibition of human FGFR4 catalytic domain expressed in baculovirus assessed as substrate phosphorylation using fluorescence-labelled peptides as substrate at 2 uM after 90 mins by microfluidic peptide phosphorylation assay.

Chain of Fibroblast growth factor receptor 4 (Homo sapiens) (P22455 22-802 limits assumed): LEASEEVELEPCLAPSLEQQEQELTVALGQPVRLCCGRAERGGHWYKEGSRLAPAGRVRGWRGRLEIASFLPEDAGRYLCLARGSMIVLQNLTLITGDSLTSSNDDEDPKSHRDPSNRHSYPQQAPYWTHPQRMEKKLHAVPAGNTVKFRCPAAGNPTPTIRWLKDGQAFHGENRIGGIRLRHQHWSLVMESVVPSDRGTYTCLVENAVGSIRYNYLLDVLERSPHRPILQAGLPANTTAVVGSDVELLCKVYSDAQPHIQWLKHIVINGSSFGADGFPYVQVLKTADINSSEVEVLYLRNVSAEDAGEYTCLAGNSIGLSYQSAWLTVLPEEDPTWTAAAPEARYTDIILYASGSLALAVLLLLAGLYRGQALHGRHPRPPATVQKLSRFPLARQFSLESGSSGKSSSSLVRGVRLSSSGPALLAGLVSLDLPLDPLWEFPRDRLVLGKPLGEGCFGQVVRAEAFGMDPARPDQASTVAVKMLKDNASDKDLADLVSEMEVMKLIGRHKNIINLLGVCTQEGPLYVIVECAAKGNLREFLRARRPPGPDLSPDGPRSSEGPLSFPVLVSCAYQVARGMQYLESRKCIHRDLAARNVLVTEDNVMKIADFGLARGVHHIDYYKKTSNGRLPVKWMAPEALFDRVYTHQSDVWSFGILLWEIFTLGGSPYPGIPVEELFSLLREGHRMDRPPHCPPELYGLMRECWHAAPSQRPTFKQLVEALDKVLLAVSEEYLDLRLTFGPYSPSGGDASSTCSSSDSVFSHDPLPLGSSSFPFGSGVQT
Chain of Ribosomal protein S6 kinase alpha-4 (Homo sapiens) (O75676 whole entry, looked up, the tested form may be a part): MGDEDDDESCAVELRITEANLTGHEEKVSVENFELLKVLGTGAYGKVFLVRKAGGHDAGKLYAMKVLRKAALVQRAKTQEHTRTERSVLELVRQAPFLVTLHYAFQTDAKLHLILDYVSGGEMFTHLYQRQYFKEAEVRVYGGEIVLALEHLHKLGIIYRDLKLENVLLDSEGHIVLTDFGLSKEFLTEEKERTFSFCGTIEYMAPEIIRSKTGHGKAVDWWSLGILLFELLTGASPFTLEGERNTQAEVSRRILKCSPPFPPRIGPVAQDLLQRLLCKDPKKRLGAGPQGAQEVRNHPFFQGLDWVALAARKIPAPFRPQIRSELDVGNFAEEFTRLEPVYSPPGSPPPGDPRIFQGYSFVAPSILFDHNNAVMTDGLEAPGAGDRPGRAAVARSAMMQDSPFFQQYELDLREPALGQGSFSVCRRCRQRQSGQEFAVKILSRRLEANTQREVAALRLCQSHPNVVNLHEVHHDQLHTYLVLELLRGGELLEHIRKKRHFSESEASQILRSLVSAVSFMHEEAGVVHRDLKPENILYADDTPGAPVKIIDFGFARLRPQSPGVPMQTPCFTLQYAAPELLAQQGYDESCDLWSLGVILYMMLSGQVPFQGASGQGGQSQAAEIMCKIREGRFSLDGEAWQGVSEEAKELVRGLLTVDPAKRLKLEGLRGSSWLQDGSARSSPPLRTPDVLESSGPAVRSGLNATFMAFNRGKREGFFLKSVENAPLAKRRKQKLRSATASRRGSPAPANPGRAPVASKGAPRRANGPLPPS
Chain of Mitogen-activated protein kinase 1 (Homo sapiens) (P28482 whole entry): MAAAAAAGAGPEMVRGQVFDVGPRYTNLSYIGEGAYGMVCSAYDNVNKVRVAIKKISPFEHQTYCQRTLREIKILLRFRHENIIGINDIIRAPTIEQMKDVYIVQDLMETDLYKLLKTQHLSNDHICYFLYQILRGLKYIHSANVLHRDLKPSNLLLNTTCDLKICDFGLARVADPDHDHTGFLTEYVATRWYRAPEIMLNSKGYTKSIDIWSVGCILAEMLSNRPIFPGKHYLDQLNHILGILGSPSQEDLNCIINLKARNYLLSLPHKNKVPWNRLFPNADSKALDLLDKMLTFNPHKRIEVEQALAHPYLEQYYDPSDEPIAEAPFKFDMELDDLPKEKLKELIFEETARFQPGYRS
Chain of Casein kinase I isoform alpha (Homo sapiens) (P48729 2-337 limits assumed): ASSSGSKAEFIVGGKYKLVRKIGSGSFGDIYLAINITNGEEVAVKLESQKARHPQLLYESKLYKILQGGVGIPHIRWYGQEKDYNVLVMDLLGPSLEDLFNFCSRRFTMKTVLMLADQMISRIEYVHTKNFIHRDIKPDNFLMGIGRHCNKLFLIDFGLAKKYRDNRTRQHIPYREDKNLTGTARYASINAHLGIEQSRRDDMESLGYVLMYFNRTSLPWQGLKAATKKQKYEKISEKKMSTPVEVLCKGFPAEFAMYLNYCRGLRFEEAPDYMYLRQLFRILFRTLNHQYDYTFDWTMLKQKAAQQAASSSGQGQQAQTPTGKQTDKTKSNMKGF
Chain of MAP kinase-activated protein kinase 2 (Homo sapiens) (P49137 whole entry, looked up): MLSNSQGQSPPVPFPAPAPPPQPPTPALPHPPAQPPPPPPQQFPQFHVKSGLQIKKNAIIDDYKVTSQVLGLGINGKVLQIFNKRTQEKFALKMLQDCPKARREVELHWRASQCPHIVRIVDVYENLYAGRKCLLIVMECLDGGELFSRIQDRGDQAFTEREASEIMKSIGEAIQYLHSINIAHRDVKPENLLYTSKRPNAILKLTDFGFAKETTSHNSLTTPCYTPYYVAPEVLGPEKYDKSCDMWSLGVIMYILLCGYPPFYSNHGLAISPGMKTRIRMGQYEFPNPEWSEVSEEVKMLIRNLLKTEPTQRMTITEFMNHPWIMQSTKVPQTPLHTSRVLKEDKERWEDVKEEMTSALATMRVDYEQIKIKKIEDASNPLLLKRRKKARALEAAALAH
Chain of MAP/microtubule affinity-regulating kinase 3 (Homo sapiens) (P27448 whole entry, looked up, canonical isoform): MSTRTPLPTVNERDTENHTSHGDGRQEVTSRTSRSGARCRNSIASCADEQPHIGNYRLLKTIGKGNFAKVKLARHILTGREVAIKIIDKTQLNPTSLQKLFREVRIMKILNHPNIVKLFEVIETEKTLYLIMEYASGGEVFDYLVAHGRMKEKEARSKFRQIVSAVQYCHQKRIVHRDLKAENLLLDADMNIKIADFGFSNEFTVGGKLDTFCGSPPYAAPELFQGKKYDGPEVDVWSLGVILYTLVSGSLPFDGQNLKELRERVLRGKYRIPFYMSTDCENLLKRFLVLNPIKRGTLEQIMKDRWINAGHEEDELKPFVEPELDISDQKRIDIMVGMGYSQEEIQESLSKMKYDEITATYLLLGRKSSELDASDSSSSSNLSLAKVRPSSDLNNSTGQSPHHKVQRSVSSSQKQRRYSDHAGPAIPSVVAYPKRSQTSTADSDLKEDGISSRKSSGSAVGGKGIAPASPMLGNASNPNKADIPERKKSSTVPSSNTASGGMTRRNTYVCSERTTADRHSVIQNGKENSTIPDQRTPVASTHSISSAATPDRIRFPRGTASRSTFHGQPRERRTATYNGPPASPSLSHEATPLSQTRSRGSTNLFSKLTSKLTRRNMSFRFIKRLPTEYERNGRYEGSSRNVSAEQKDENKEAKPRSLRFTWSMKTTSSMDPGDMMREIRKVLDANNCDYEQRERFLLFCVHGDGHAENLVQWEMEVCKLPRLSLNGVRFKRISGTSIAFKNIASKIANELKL

For orientation: inhibition means the drop in the measured response relative to a control, in per cent. Consider `NCC1CCN(c2ncnc3[nH]ccc23)CC1`, for which the inhibition was 7.5% in experiment [1] and 42.5% in experiment [2]. Regarding `C[C@H](CN(C)C)Oc1nc(Nc2cc3cccc(Cl)c3cn2)cnc1C#N`, in [3], the inhibition is 3%. As for `NC1(Cc2ccc(Cl)cc2)CCN(c2ncnc3[nH]ccc23)CC1`, the inhibition in [4] is 2%; in [5], 0%. For `Clc1ccc(C2(c3ccc(-c4ncnc5[nH]cnc45)cc3)CCNCC2)cc1`, the inhibition in experiment [6] is 27.5%; in experiment [7], 4%. With `NCC1CN(c2ncnc3[nH]c4cnccc4c23)CCO1` (stereo unspecified), the inhibition in [8] came to 2%. `CNCc1ccc(-c2ncnc3[nH]cnc23)cc1`: the inhibition in experiment [9] and in [10] was 68% in each case.

For `NC1CCN(c2ncnc3[nH]ccc23)CC1`, in experiment [11], the inhibition stood at 0%.
